Test results taken from patent US8420693B2, “Dipyrrole compounds, compositions, and methods for treating cancer or viral diseases” (Gemin X Pharmaceuticals Canada Inc., priority 2004, dated 2013).
Structures can show the parent of a compound that is named as a salt.

Experiments:
[1] = system: C33A human cervical cancer cells; experiment: Growth of C33A cervical tumors in CB17 SCID/SCID mice; assay type: in vivo; conditions: for T/C value: day 42
From the text: (§1) As used herein, the term “T/C value” refers to the value obtained when: (a) the change from baseline in average tumor volume of treated mice is divided by the change from baseline in the average tumor volume of negative control mice; and (b) the numerical value obtained in step (a) is multiplied by 100.
The resultant mice are a model for a human having cervical cancer.
The C33A human cervical cancer cells were maintained in RPMI (Hyclone, Utah, USA) supplemented with 10% inactivated fetal bovine serum (Bio-Whittaker, MD, USA) and 1% penicillin-streptomycin-L-Glutamine (Gibco, N.Y., USA), under 5% CO2 at 37° C., and passaged twice a week. The cells were grown at a confluency lower than 70% and than collected with Trypsin (Bio-Whittaker, MD, USA). The cells were then centrifuged and washed twice using phosphate buffered saline solution (PBS) and resuspended in PBS at 2×10^6 cells per 100 μl. Viability was examined by staining with trypan blue (Gibco, N.Y., USA) and only flasks with cell viability greater than 95% were used for in vivo studies.
C33A cells were injected subcutaneously into the flank of female CB17 SCID/SCID mice. Each mouse was inoculated with a suspension of 2×10^6 tumors cells per 100 μl on day zero. There were three treatment groups of ten mice each: (a) a negative control group, (b) a group treated with Compound 22 MS and (c) a group treated with Compound 37 MS.
Treatments started on day twenty eight after C33A cells transplantation. […] The negative control group was treated with vehicle alone. The injection volume for Compound treated groups and the negative control group was 100 μl.
Observation continued for 51 days after initial tumor implantation.

[2] = system: human prostatic adenocarcinoma cancer PC3 cells; experiment: Growth of PC3 prostate tumors in SCID mice; assay type: in vivo
From the text: as §1
The resultant mice are a model for a human having prostatic cancer.
The human prostatic adenocarcinoma cancer PC3 cells were purchased from the American Type Culture Collection (ATCC). These cells were confirmed to be free of mycoplasma infection. Cells were maintained in the Roswell Park Memorial Institute (RPMI), supplemented with 10% inactivated fetal bovine serum and 1% penicillin-streptomycin-L-Glutamine, under 5% carbon dioxide (CO2) at 37° C. For prostatic-tumor induction, cells were grown lower than 70% confluence in complete medium and then collected with trypsin (Bio Whittaker, Rockland, Me., USA). Cells were then centrifuged and washed 2 times in phosphate buffer solution (PBS) and resuspended in PBS at 1.5×10^6 cells/0.1 mL. PC3 cells were then transplanted subcutaneously into the right flank of SCID mice (Charles River Laboratories, Wilmington, Mass., USA), as a suspension of tumor cells (1.5×10^6 cells in 100 μL PBS), under a laminar airflow hood. Eleven (11) days later, the size of each tumor was measured. […] Relative tumor size and volume was calculated as follows: length (cm)×[width (cm)]^2/2. There were four treatment groups of ten mice each: (a) a negative control group, (b) a positive control group and (c) a group treated with 36.25 μMoles/Kg of Compound 17 Mesylate Salt (d) a group treated with 72.5 μMoles/Kg of Compound 17 Mesylate Salt.
Treatments started on day eleven after PC3 cells transplantation. […] The negative control group was treated with vehicle alone.
Observation continued for 32 days after initial tumor implantation.

[3] = system: C33A cervical carcinoma cells; experiment: Cancer cell viability by cellular ATP levels (ViaLight), C33A; assay type: cell-based; conditions: Homo sapiens, C-33-A, 72 h, 3 days of incubation, ATP levels relative to untreated control
Protocol: (§2) Selected cell lines included C33A cervical carcinoma cells and H1299 human non-small cell lung cancer-cells (American Type Culture Collection, Manassas, Va. USA), which were cultured in the media recommended by the American Type Culture Collection. The cells lines were plated in 96-well microtiter plates (PerkinElmer Life Sciences Inc, Boston, Mass., USA) at a confluency that allowed them to reach confluence after 4 days of growth. One day after plating, the cells were treated with various concentrations of Compounds. Stock solutions of the Compounds were prepared in dimethyl sulfoxide (Sigma-Aldrich Inc., St. Louis, Mo., USA), diluted in the recommended media and then added to the cells. The total dimethyl sulfoxide on the cells was 0.1%. After 3 days of incubation the ATP levels in the cells were quantified using a luminescent ViaLight detection system (Bio-Whittaker, MD, USA). The results were plotted relative to untreated control cells, which were set at a value of 100. The IC50s were determined using a best-fit sigmoidal dose response curve with variable slope.

[4] = system: H1299 human non-small cell lung cancer-cells; experiment: Cancer cell viability by cellular ATP levels (ViaLight), H1299; assay type: cell-based; conditions: NCI-H1299, 72 h, 3 days of incubation, ATP levels relative to untreated control
Protocol: as §2

[5] = 2.6 mg/kg iv once a day for five days
[6] = 10 mg/kg iv once a day for five days

Row | Structure (SMILES) | IC50 [3] [µM] | IC50 [4] [µM] | further results
1 | COC1=CC(c2cnn(Cc3ccccc3)c2)=NC1=Cc1[nH]c(C)cc1C [Compound 37 MS, 1-benzyl-4-(4-methoxy-5-((3,5-dimethyl-1H-pyrrol-2-yl)methylene)-5H-pyrrol-2-yl)-1H-pyrazole] |  |  | reduction in tumor growth compared to mice treated with vehicle only [1, 5]: statistically significant (p<0.0001) reduction in tumor growth; T/C value [1, 5]: 31%
2 | COC1=CC(c2ccc(N(C)C)cc2)=NC1=Cc1[nH]c(C)cc1C [Compound 22 MS, 4-(4-methoxy-5-((3,5-dimethyl-1H-pyrrol-2-yl)methylene)-5H-pyrrol-2-yl)-N,N-dimethylbenzenamine] |  |  | reduction in tumor growth compared to mice treated with vehicle only [1, 6]: statistically significant (p=0.0024) reduction in tumor growth; T/C value [1, 6]: 34%
3 | COC1=CC(c2ccc(OC)c(OC)c2)=NC1=Cc1[nH]c(C)cc1C [Compound 17 Mesylate Salt, 2-((3-methoxy-5-(3,4-dimethoxyphenyl)-2H-pyrrol-2-ylidene)methyl)-3,5-dimethyl-1H-pyrrole] |  |  | reduction in tumor growth compared to mice treated with vehicle only ([2]; 36.25 μMoles/Kg iv once a day for five days): did not result in a statistical significant reduction in tumor growth; T/C value ([2]; 36.25 μMoles/Kg iv once a day for five days, day 29): 53%; T/C value ([2]; 36.25 μMoles/Kg iv once a day for five days, day 32): 52%; T/C value ([2]; 72.5 μMoles/Kg iv once a day for five days, day 29): 18%; T/C value ([2]; 72.5 μMoles/Kg iv once a day for five days, day 32): 22%; reduction in tumor growth compared to mice treated with vehicle only ([2]; 72.5 μMoles/Kg iv once a day for five days, days 29 and 32): statistically significant (p<0.01) reduction in tumor growth
4 | COC1=CC(c2cc(OC)c(OC)c(OC)c2)=NC1=Cc1[nH]c(C)cc1C [Compound 28, 2-((3-methoxy-5-(3,4,5-trimethoxyphenyl)-2H-pyrrol-2-ylidene)methyl)-3,5-dimethyl-1H-pyrrole] | 0.627 | 2.38 | 
5 | COC1=CC(c2ccc(SC(C)C)cc2)=NC1=Cc1[nH]c(C)cc1C [Compound 36, 2-((5-(4-(isopropylthio)phenyl)-3-methoxy-2H-pyrrol-2-ylidene)methyl)-3,5-dimethyl-1H-pyrrole] | 1.19 | 1.43 | 
6 | COC1=CC(c2cccnc2OC)=NC1=Cc1[nH]c(C)cc1C [Compound 30, 2-methoxy-3-(4-methoxy-5-((3,5-dimethyl-1H-pyrrol-2-yl)methylene)-5H-pyrrol-2-yl)pyridine] | 1.2 | 5.69 | 
7 | COC1=CC(c2ccc(F)nc2)=NC1=Cc1[nH]c(C)cc1C [Compound 39, 2-fluoro-5-(4-methoxy-5-((3,5-dimethyl-1H-pyrrol-2-yl)methylene)-5H-pyrrol-2-yl)pyridine] | 7.65 | 20 | 
8 | COC1=CC(c2ccc3c(c2)OCC3)=NC1=Cc1[nH]c(C)cc1C [Compound 31, 2-((5-(2,3-dihydrobenzofuran-6-yl)-3-methoxy-2H-pyrrol-2-ylidene)methyl)-3,5-dimethyl-1H-pyrrole] | 0.212 | 0.668 | 

Now from value to molecule, other results behind:

Row | IC50 [3] [µM] | IC50 [4] [µM] | Structure (SMILES) | further results
9 | 1.15 | 6.64 | COC1=CC(c2ccc(Br)cc2)=NC1=Cc1[nH]c(C)cc1C [Compound 29, 2-((5-(4-bromophenyl)-3-methoxy-2H-pyrrol-2-ylidene)methyl)-3,5-dimethyl-1H-pyrrole] | 
10 | 9.5 | 15 | COC1=CC(c2ccc(Br)s2)=NC1=Cc1[nH]c(C)cc1C [Compound 7, 2-((5-(5-bromothiophen-2-yl)-3-methoxy-2H-pyrrol-2-ylidene)methyl)-3,5-dimethyl-1H-pyrrole] | 
11 | 1.6 | 7.55 | COC1=CC(c2ccc3c(c2)OCCO3)=NC1=Cc1[nH]c(C)cc1C [Compound 23, 2-((5-(2,3-dihydrobenzo[b][1,4]dioxin-7-yl)-3-methoxy-2H-pyrrol-2-ylidene)methyl)-3,5-dimethyl-1H-pyrrole] | 
12 | 3 | 10 | COC1=CC(c2ccc(F)cc2F)=NC1=Cc1[nH]c(C)cc1C [Compound 3, 2-((5-(2,4-difluorophenyl)-3-methoxy-2H-pyrrol-2-ylidene)methyl)-3,5-dimethyl-1H-pyrrole] | 
13 | 10 | 10 | COC1=CC(c2ccccc2)=NC1=Cc1[nH]c(C)cc1C [Compound 1, 3-methoxy-2-((3,5-dimethyl-1H-pyrrol-2-yl)methylene)-5-phenyl-2H-pyrrole] | 
